# Laboratory results reported in patent US8440610B2, “Mapkap kinase-2 as a specific target for blocking proliferation of P53-defective cells” (Massachusetts Institute of Technology, priority 2004, dated 2013).
# How the values were obtained:
# U2OS cells = experiment: Clonogenic survival assay in U2OS cells; type: cell-based, human; conditions: 10 μM cisplatin or 1 μM doxorubicin for eight hours, colonies after eight days
# Experimental: The experiments in FIGS. 15A-15C and 16A-16D indicate that MAPKAP kinase-2 is critical for cisplatin- and doxorubicin-triggered G1/S and G2/M arrest. These checkpoint defects in MAPKAP kinase-2 depleted cells might render them more sensitive to the antiproliferative and cytotoxic effects of chemotherapy. To investigate this, control or MAPKAP kinase-2 knockdown U2OS cells were mock treated or incubated with increasing doses of cisplatin or doxorubicin for eight hours, washed, trypsinized and replated, and assayed for colony formation eight days later (FIGS. 16A-16B). […] For example, luciferase shRNA cells treated with either 10 μM cisplatin or 1 μM doxorubicin formed ˜40% of the number of colonies as those formed by untreated cells, while in MAPKAP kinase-2-depleted cells, these same cisplatin and doxorubicin treatments reduced the number of colonies to only 4% and 2%, respectively, of those seen in the untreated cells.
# Clonogenic survival assay. Cells were either mock-treated or treated with increasing doses of doxorubicin or cisplatin. After eight hours of treatment, cells were washed three times with growth media and three times with PBS, trypsinized and replated at a concentration of 5000 cells/10 cm^2 dish. After eight days, cells were fixed and stained with 0.1% crystal violet (Sigma-Aldrich). Colonies consisting of >50 cells were counted, and surviving fractions were determined by normalization against untreated cells. Experiments were performed in triplicate and are plotted as mean values with standard deviations indicated by the error bars.
# [1] = system: H-Ras-V12 transformed p53−/− MEFs; experiment: Tumor regression assay of established tumors in nude mice; type: in vivo; conditions: MK2 depleted tumors; for tumor diameter at start of treatment: before treatment; for tumor diameter after fourteen days of treatment: cisplatin 2 mg/kg or doxorubicin 4 mg/kg intraperitoneal 3× per week
# Experimental: For tumor regression assays, H-Ras-V12 transformed p53^−/− MEFs were stably transfected with a lentiviral transfer vector encoding for shRNA targeting either MAPKAP kinase-2 or luciferase. 10^6 cells were injected into the flanks of nude mice as above, and tumors were allowed to form for twelve days. Mice were then treated with either cisplatin (2 mg/kg, intraperitoneal administration 3× per week) or doxorubicin (4 mg/kg, intraperitoneal administration 3× per week), monitored for a total of twenty-six days, and then sacrificed. Tumor diameter was measured periodically during growth and tumors were weighed at the endpoint. Experiments were performed in quadruplicate, and data plotted as sample means with error bars showing standard deviation.
# We investigated whether the chemo-sensitizing effect of MK2 depletion in p53 null cells in culture could also be observed when pre-existing p53 deficient tumors were treated with DNA damaging drugs in vivo. In these experiments HRas-V12 transformed p53^−/− MEFs were stably transfected with control shRNA or MK2 shRNA expressed from a murine U6 promoter, using a lentiviral delivering system (FIG. 18A). The lentiviral transfer vector also encoded GFP under the control of a CMV promoter, allowing for fluorescent detection of tumors in situ. Tumors were induced by injection of 10^6 cells into the flanks of nude mice. Twelve days later ˜1 cm diameter tumors had formed at all injection sites, and treatment with cisplatin, doxorubicin, or vehicle was begun (FIG. 18B). In the absence of treatment with DNA damaging drugs, the tumors arising from the MK2 depleted cells in the right flanks of these animals grew slightly larger than those of the luciferase shRNA control cells in the left flanks (FIG. 18B-18D). […] Tumors depleted of MK2 shrank from 1.3 cm to 0.4 cm over fourteen days when treated with cisplatin, and from 1.4 to 0.5 cm when treated with doxorubicin. Thus, the sensitizing effect of MK2 depletion on DNA damage induced cell death in p53-deficient primary cells observed in cell culture was also maintained in vivo.
# p38 MAPK/MK2 pathway = experiment: Immunoblot of p38 MAPK/MK2 activation after DNA-damaging drugs in U2OS cells; type: cell-based, human; conditions: U2OS cells, 10 μM drug
# Experimental: 14-3-3 pull-down assays, immunoblotting, and immunofluorescence. U2OS cells were lysed in lysis buffer: 50 mM Tris/HCl, pH7.8, 150 mM NaCl, 1.0% NP-40, 5 mM EDTA, 2 mM DTT, 8 μg/ml pepstatin, 8 μg/ml aprotinin, 8 μg/ml leupeptin, 2 mM Na3VO4, 10 mM NaF, 1 μM microcystin for twenty minutes at 4° C. Clarified lysates (0.5-2 mg protein) were incubated with 20 μL glutathione beads or amylose beads containing 10-20 μg 14-3-3-GST or 14-3-3-MBP, respectively, for 120 minutes at 4° C. Following washing, lysates and bead-bound proteins were analysed by SDS-PAGE, followed by transfer to PVDF membranes and immunoblotted with the indicated antibodies. For immunofluorescence experiments, U2OS cells were seeded onto 18 mm^2 coverslips, irradiated or mock-treated, fixed, extracted, and immunostained as described previously (Clapperton et al., Nat. Struct. Mol. Biol., 11:512-518, 2004).
# [2] = MAPKAP kinase-2-depleted U2OS cells
SMILES,number of colonies relative to untreated cells (U2OS cells; [2]),number of colonies relative to untreated cells (U2OS cells; luciferase shRNA U2OS cells),tumor diameter at start of treatment [1],tumor diameter after fourteen days of treatment [1],"time to MK2 activation (reduction in electrophoretic mobility, pThr-344) (p38 MAPK/MK2 pathway)"
COc1cccc2c1C(=O)c1c(O)c3c(c(O)c1C2=O)C[C@@](O)(C(=O)CO)C[C@@H]3O[C@H]1C[C@H](N)[C@H](O)[C@H](C)O1 [doxorubicin],2%,~40%,1.4 cm,0.5 cm,Within one hour
N.N.[Cl][Pt][Cl] [cisplatin],4%,~40%,1.3 cm,0.4 cm,Within one hour
